Earlier results on one compound are cited in article PMC11396062, “The n-Butanol Extract Obtained from the Inner Bark of Tabebuia rosea (Bertol.) DC, Specioside, and Catalposide Induce Leukemia Cell Apoptosis in the Presence of Apicidin” (Molecules, 2024).

Molecules are shown by their SMILES.

The data set has as its system Hep-G2 cells. Also on record: method as in PMID 21678519. To be noted: cited from earlier work.

On to `O=C(O[C@H]1[C@@H]2C=CO[C@@H](O[C@@H]3O[C@H](CO)[C@@H](O)[C@H](O)[C@H]3O)[C@@H]2[C@@]2(CO)O[C@@H]12)c1ccc(O)cc1` [Catalposide, catalposide], for which the “effect in Hep-G2 cells” value was “only had cytotoxic and cytostatic effects”.
